Consider nine molecules from paper PMC10426190 (Breast Cancer Research : BCR, 2023).

Data set [1] in a line: Brain distribution study in mice. As to conditions: oral 10 mg/kg once a day (fulvestrant 250 mg/kg sc once per week), 24 h post last dose.
Protocol: The blood and brain tissues were collected at 24 h post the last dose. […] All blood was collected in K2-EDTA tubes and plasma was obtained by centrifuging the blood at 3200 rpm for 10 min at 4 °C and the brain was rinsed with water and blotted to remove superficial meninges. Plasma and brain samples were stored at − 80 °C until LC–MS/MS analysis which was performed on an Acquity UPLC system (Waters, USA) coupled to an AB SCIEX Triple Quad 6500 + System.
Brain conc./plasma conc. was presented as a B/P ratio
On the set-up of data set [2]: method as in PMID 26149830. The following applies: mice, 30 mg/kg, approximately 12 h ref 38; cited from earlier work.
Details of data set [3]: method as in PMID 30018387. As to conditions: cited from earlier work.
The subject of another data set is uterine tissue. Nature of the data set: Assessment of uterotropic activity in juvenile rats. The class given is in vivo, rat. As to conditions: juvenile SD rats, oral QD x 3 days; tamoxifen 60 mg/kg, SCR-6852 10 mg/kg; vs vehicle. The procedure: Twenty-four hours after the final dose, all animals were euthanized. Body weights and wet uterine weights were recorded for each animal. Fresh uterine tissue from each rat was fixed in 4% paraformaldehyde, dehydrated by HistoCore PEARL (Leica), and embedded by HistoCore Arcadia H + HistoCore Arcadia C (Leica). Sections were cut at 4 μm and stained with 0.1% toluidine blue O. The thickness of endometrial epithelium was measured using Leica Aperio CS2 with ImageScope × 64 program (Leica). The mean of five measurements per specimen was calculated.
MCF7 with hormone-deprived pre-treatment were administrated ER ligands or not present with 1 nM E2 stimulation for 24 h incubation in a 12-well plate. Total mRNA was isolated from treated cells and sequenced on an Illumina HiSeq X Ten platform. FPKM of each gene was calculated using Cufflinks and Differential expression genes analysis by using the DESeq (2012) R package. Four separate clusters were obtained. […] T47D EFM-19 and HCC1500 cells were grown in RPMI media supplemented with 10% charcoal-stripped FBS for 14 days and then treated with ER antagonist (1 μM) or DMSO in the presence E2 (1nM) stimulation for 24 h before RNA isolation and gene expression analysis as described in methods. […] Endometrial height was assessed from the basement membrane to the luminal border (scale bar in green lines: 200 μm), Arrows indicate the uterine epithelium (e).

In a further data set the test system is breast cancer. Further details: method as in PMID 28149048. The following applies: cited from earlier work.
In data set [4] the test system is MCF-7 subcutaneous tumors. The experiment in a line: MCF-7 subcutaneous xenograft, combination with Palbociclib. In kind it is in vivo, mouse. As to conditions: MCF-7 sc, Palbociclib 40 mg/kg monotherapy. The procedure:
Female Balb/c nude mice were used for MCF-7 and T47D tumor subcutaneous xenograft studies. At least one day before tumor cell implantation, estrogen pellets (0.18 mg, 17β-Estradiol, 60-day release, Innovative Research of America, Sarasota, FL, USA) were implanted subcutaneously. Each mouse was subcutaneously injected with 1 × 10^7 MCF-7 (ECACC) or T47D cells in the right flank, and tumor growth was monitored. The long diameter (a) and the short diameter (b) of the tumor were measured using a caliper, and the tumor volume was calculated using the following formula: V = 0.5 × a × b^2. […] Tumor volumes were evaluated twice per week. Treatment tolerability was assessed by body weight measurements and frequent observation for clinical signs of treatment-related adverse effects.
(§1) Statistical and graphical presentations were performed using IDBS XLfit and GraphPad Prism 9. For cell proliferation assays, the IC50 was calculated by fitting a dose–response curve using a nonlinear regression model with a log(inhibitor) vs response curve fit. […] P-values < 0.05 were considered statistically significant.
Cell viability was measured using Cell TiterGlo assay. […] The result of one representative assay from three similar independent experiments is shown.

The subject of another data set is intracranial tumor. The following applies: cited from earlier work.
Data set [5] has as its system ER+ breast cancer, WT or mutant ESR1. Also noted: method as in EMERALD (NCT03778931), ASCO, 2022. The following applies: ASCO, 2022, cited from earlier work.
For a further data set, the system named is MCF-7 WT cells. Nature of the data set: Viability assay (CellTiter-Glo, 7 days), MCF-7 WT. The class given is cell-based, human. The procedure:
(§2) Trypsinized cells were dispensed into 384-well plates in culture media and after overnight incubation cells were treated with compounds for 7 days. Cell viability was assessed using CellTiter-Glo (Promega) according to the manufacturer’s protocol and relative luminescence units (RLU) were measured using an Envision Multilabel Reader (Perkin Elmer). […] IC50 and Imax were analyzed with IDBS XLfit.
as §1
(ATP-based viability assays read luminescence as a measure of living cells.)

Data set [6] addresses T1, ERα (Homo sapiens, UniProt P03372).
T1 sequence (P03372 1-595): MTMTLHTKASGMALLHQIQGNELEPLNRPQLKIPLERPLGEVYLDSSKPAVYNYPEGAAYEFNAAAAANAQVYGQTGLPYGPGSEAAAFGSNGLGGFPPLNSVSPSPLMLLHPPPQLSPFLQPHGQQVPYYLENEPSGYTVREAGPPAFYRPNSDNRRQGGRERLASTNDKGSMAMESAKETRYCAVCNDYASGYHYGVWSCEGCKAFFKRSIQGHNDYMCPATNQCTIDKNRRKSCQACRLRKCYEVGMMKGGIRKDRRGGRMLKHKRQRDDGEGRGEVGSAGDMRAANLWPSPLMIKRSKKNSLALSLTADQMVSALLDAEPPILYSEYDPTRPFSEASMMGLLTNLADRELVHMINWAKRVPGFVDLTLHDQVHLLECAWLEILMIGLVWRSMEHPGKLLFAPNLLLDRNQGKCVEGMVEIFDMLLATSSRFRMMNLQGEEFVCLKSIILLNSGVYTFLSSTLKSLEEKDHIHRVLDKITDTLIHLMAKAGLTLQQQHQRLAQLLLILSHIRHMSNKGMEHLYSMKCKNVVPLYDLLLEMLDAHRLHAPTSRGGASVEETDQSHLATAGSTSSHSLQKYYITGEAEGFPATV
The experiment in a line: ERα degradation assay, In-Cell Western, MCF-7 WT. In kind it is cell-based. Also noted: MCF-7 wild type and Y537S mutant cells were seeded at a density of 5000 cells per well; host or cells: MCF-7. The following applies: 24 h. The procedure:
MCF-7 wild type and Y537S mutant cells were seeded at a density of 5000 cells per well into flat clear bottom tissue cultured-treated 384-well plates (Greiner) in culture media and after overnight incubation cells were treated with compounds for 24 h. Then plates were fixed with 4% formaldehyde, permeabilized with ice-cold methanol, and blocked with Odyssey Blocking Buffer (LI-COR). The fixed cells were incubated with rabbit anti- ERα antibody (CST#8644S) and mouse anti-GAPDH antibody (Abcam #ab8245), washed and stained with IRDye 800 Goat anti-Rabbit IgG (Licor#926-32211) and IRDye 680 Goat anti-Mouse IgG (Licor#926-68070). ERα levels were quantitated using Sapphire RGBNIR (Azure), the acumen eX3 imaging system. […] IC50 and Emax were analyzed with IDBS XLfit.
(§3) MCF7 cells were seeded in a 384-well plate and linear-dilution compounds were administrated in duplicate for each treatment. After incubation for 24 h, Cells in the assay pate were treated as described in methods. ERα levels were quantified by immunofluorescence assay. […] Cells were dispended into 96-well plates and incubated for 24 h with compounds (100 nM) treatment. […] Cells were seeded in 384-well plates and treated with linear-dilution compounds for 7 days of incubation. Cell viability was assessed using CellTiter-Glo. Cell growth inhibition is presented as a percentage of CellTiterGlo activity relative to the vehicle control. […] Then cells in each well were collected and the targeting proteins in lysate supernatant were detected by WB
Cells were seeded at a density of 5,000 cells per well into 384-well plates and treated with linear-titration compounds in duplicate for 24 hours. ERα levels were quantified by immunofluorescence assay as described in the method. The detection signals were captured by Odyssey.

Data set [7] concerns the target T1, ERα. The experiment in a line: Maximal ERα degradation across ER-positive cell panel, In-cell Western, 100 nM. The class given is cell-based. As to conditions: 24 h, EFM-19, CAMA-1, HCC1500, T47D, BT-474. The procedure:
as §3

For data set [8], the system named is ER + breast cancer cell lines. The experiment in a line: Proliferation assay across ER-positive cell panel. As to conditions: CAMA-1 and HCC1500, 7 days. The class given is cell-based, human. The procedure:
as §2
MCF7 cells were seeded in a 384-well plate and linear-dilution compounds were administrated in duplicate for each treatment. After incubation for 24 h, Cells in the assay pate were treated as described in methods. ERα levels were quantified by immunofluorescence assay. […] Data are given as mean ± SEM. b The maximal ERα degradation across an ER-positive cell panel was evaluated in an In-cell Western assay. Cells were dispended into 96-well plates and incubated for 24 h with compounds (100 nM) treatment. […] Cells were seeded in 384-well plates and treated with linear-dilution compounds for 7 days of incubation. Cell viability was assessed using CellTiter-Glo. Cell growth inhibition is presented as a percentage of CellTiterGlo activity relative to the vehicle control. […] WT (e) and ER. Y537S cells (f). […] Then cells in each well were collected and the targeting proteins in lysate supernatant were detected by WB

Like-named read-outs stand apart in the source and are kept apart here. Where only a bound is given, the exact number is not on record here.

Broadly, the TGI is the reduction of tumour growth relative to the control group. What is called IC50 is the concentration that gives 50% inhibition. Read a high IC50 as lower potency. Usually DC50 stands for the concentration giving 50% degradation.

As for `C[C@@H]1Cc2c([nH]c3ccccc23)[C@@H](c2c(F)cc(NC3CN(CCCF)C3)cc2F)N1CC(F)(F)CO` [GDC-9545], in data set [1], the B/P ratio result is “less than onefold”.
The same measure, in the same setting: under `C[C@@H]1Cc2c(ccc3[nH]ncc23)[C@@H](c2ccc(NC3CN(CCCF)C3)cn2)N1CC(F)(F)F` [AZD-9833] stands “less than onefold”.
Regarding `CCN1CCN(Cc2ccc(Nc3ncc(F)c(-c4cc(F)c5nc(C)n(C(C)C)c5c4)n3)nc2)CC1` [Abemaciclib], the “target engagement ratio (unbound brain concentration to in vitro enzyme IC50)” value in [2] was 3.3–14.3.
In the case of `Nc1cc(C(F)(F)F)c(-c2cc(N3CCOCC3)nc(N3CCOCC3)n2)cn1` [Buparlisib], the B/P ratio in data set [3] is on record as above 1.5.
As to `CC/C(=C(\c1ccccc1)c1ccc(OCCN(C)C)cc1)c1ccccc1` [Tamoxifen], in the data set on uterine tissue, the endometrial epithelial thickness entry is reported as “significantly increased” and the “relative uterine wet weight” value is recorded as “significant increase”. Also, in the data set with breast cancer, the “reduction of annual mortality rate” value is 31% and the “reduction of breast cancer recurrence” value is on record as 50%.
Take `CC(=O)c1c(C)c2cnc(Nc3ccc(N4CCNCC4)cn3)nc2n(C2CCCC2)c1=O` [Palbociclib]: the TGI in [4] is recorded as 66.34%.
Turning to `CCNCCc1ccc(CN(CC)c2cc(OC)ccc2[C@@H]2CCc3cc(O)ccc3C2)cc1` [Elacestrant], in the data set with intracranial tumor (day 54 ref 41), the “animals survived to the end of the study” value is on record as 43%. For the same molecule, in the data set with intracranial tumor (intracranial tumor, according to reported data ref 41), the B/P ratio entry is “about 0.6”. For the same molecule, the “PFS rate at 12 months” value in data set [5] (ESR1 mutation population ref EMERALD (NCT03778931)) is recorded as 26.76%; in [5] (overall population ref EMERALD (NCT03778931)) it was 22.32%. For the same molecule, the “reduction of the risk of disease progression or death” value in data set [5] (all patients ref EMERALD (NCT03778931)) is 30%; in data set [5] (patients with ESR1 mutation ref EMERALD (NCT03778931)) it was 45%.
Consider `CC1Cc2cc(B(O)O)ccc2C(c2c(F)cc(NC3CN(CCCF)C3)cc2F)N1CC1(F)CC1` (centres unmarked) [SCR-6515], for which, in the data set with MCF-7 WT cells, half-maximal inhibition (IC50) required 0.29 nM, the “Viability assay Emax [% Ful.]” value is on record as 103.00 % Ful and the “Viability assay Emax [% Veh.]” value worked out at 64.15 % Veh. Besides, on ERα [6], the DC50 was 0.08 nM, the “ERα degradation assay Dmax [% Ful.]” value came to 97.83 % Ful and the “ERα degradation assay Dmax [% Veh.]” value came out at 66.81 % Veh.
Take `C[C@@H]1Cc2c([nH]c3ccccc23)[C@@H](c2c(F)cc(/C=C/C(=O)O)cc2F)N1CC(C)(C)F` [AZD9496]: on ERα [7], the “maximal ERα degradation rate across ER + cell lines” value is “less potency ERα degradation rate”. For the same molecule, the maximal anti-proliferation rate result in data set [8] was “lower maximal anti-proliferation rate”.
